Source: patent US9433211B2, “Antimicrobial agent” (TAIYO CORPORATION, priority 2012, dated 2016)
Converted amounts (≈) assume the structure as drawn.

What was measured:
[1] = tested on: black mold (A. niger, JCM10254); experiment: Verification test of antimicrobial effects (minimum inhibitory concentration) on black mold; assay type: cell-based; conditions: for Minimum inhibitory concentration / MIC: A. niger, cultured at 30° C. aerobic four days, visual turbidity, 156-2500 ppm tested; for MIC: Aspergillus niger, JCM10254, 96 h; for antimicrobial activities, comparison in words: against black mold (A. niger), from the results in Table 1
Method: (§1) 0.5 ml of a previously sterilized culture medium (trade name “Potato dextrose liquid culture medium”, made by Nissui Pharmaceutical Co., Ltd. was placed into a 96-well deep type microplate, then the propanediol mono-β-hydroxycarboxylic acid esters (the present invention products 1 to 10), the glycerin mono β-hydroxydecanoic acid ester (comparative product 1), the β-hydroxydecanoic acid potassium (comparative product 2) prepared in the above descriptions of (1) to (5) as well as 1,2-octanediol (comparative product 3), 1,2-propanediol (comparative product 4) and 1,3-propanediol (comparative product 5) known as an auxiliary antiseptic agent for external preparations for skin were respectively added, and the culture medium was diluted in a step-wise manner so that the final concentration in the medium was 156 ppm, 312 ppm, 625 ppm, 1250 ppm, and 2500 ppm to prepare sample solutions.
(§2) To these sample solutions, 0.1 ml of each culture solution of blackmold (A. niger, JCM10254) and yeast (C. albicans, NBRC1594) at approximately 1×10^6 CFU/ml were added, and the solutions were cultured at 30° C. under an aerobic condition for four days. Antimicrobial effects were visually determined. The solutions were compared with test areas in which the above microorganisms had not been added. Test areas in which no turbidity due to growth of the microorganism was observed were determined to have antimicrobial effects, and the lowest concentration necessary for inhibiting the growth of the microorganism (hereinafter referred to as “minimum inhibitory concentration”) was measured.

[2] = tested on: yeast (C. albicans, NBRC1594); experiment: Verification test of antimicrobial effects (minimum inhibitory concentration) on yeast; assay type: cell-based; conditions: for Minimum inhibitory concentration / MIC: C. albicans, cultured at 30° C. aerobic four days, visual turbidity, 156-2500 ppm tested; for MIC: 96 h; for antimicrobial activities, comparison in words: against yeast (C. albicans), from the results in Table 1
Method: as §1, §2

[3] = Compounding property in cosmetic, pharmaceutical and industrial formulations; assay type: physicochemical; conditions: 0.30 weight %
Method: Glycerin, DPG, POE (60) hydrogenated castor oil, and 1,3-propanediol mono-β-hydroxydecanoic acid ester were mixed and dissolved by being heated to 70° C. (the resulting mixture was referred to as a mixture A). On the other hand, citrate acid Na, citric acid, glycine, alanine, hyaluronic acid Na, and water were individually mixed at room temperature (the resulting mixture was referred to as a mixture B). Then, the mixture A and the mixture B were combined and mixed at 50° C., and thus a lotion was obtained.
Cetanol, squalane, stearic acid, γ-tocopherol, BHT, polyethylene glycol monostearate (25EO), glycerin stearic acid monoester, and 1,3-propanediol mono-β-hydroxydecanoic acid ester were individually mixed and dissolved by being heated to 70° C. (the resulting mixture was referred to as a mixture A). On the other hand, 1,3-butanediol, carboxy vinyl polymer, and potassium hydroxide were individually mixed at room temperature (the resulting mixture was referred to as a mixture B). Then, the mixture A and the mixture B were combined and heated to 60° C. and were vigorously stirred and emulsified while being gradually added in small quantities to the purified water, and thus a milky lotion was obtained.
With regard to the compounding example 6, pantothenic acid, hyaluronic acid, thioxolone, hydrocortisone acetate, tocopherol, and minoxidil were mixed individually and dissolved by being heated to 70° C. (the resulting mixture was referred to as a mixture A). On the other hand, glycerin, polyoxyethylene glycol monoether, ethanol, and the present invention product 8 (1,3-propanediol mono-β-hydroxydecanoic acid ester) were mixed at room temperature (the resulting mixture was referred to as a mixture B). Then, the mixture A and the mixture B were combined and heated to 70° C. and were vigorously stirred while being added gradually in small quantities to water, and thus a hair growth liquid was obtained.
In preparing the compounding example 11, polyoxyethylene nonylphenylether, polyoxyethylene sorbitan monosterate, BHT, and fragrant material were mixed individually and dissolved by being heated to 80° C. (the resulting mixture was referred to as a mixture A). On the other hand, gellan gum, propylene glycol, the present invention product 8 (1,3-propanediol mono-β-hydroxydecanoic acid ester), and water were mixed at 80° C. (the resulting mixture was referred to as a mixture B). Then, the mixture B was gradually added in small quantities to the mixture A, heated to 80° C., and were vigorously stirred, and thus a transparent aqueous aromatic agent for vehicles was obtained.

[4] = hair growth liquid (compounding example 6)
[5] = transparent aqueous aromatic agent for vehicles (compounding example 11)

| MIC [1] [µg/mL] | MIC [2] [µg/mL] | Structure (SMILES) | Minimum inhibitory concentration [1] [ppm] | Minimum inhibitory concentration [2] [ppm] | antimicrobial activities, comparison in words [2] | also measured |
| --- | --- | --- | --- | --- | --- | --- |
|  |  | CCCCCCCC(O)CC(=O)OCC(O)CO (stereo not drawn) [Comparative product 1, glycerin mono β-hydroxydecanoic acid ester, reference compound] | 2500 | >2500 |  |  |
| 1250 | 2500 | CCCCCCCC(O)CC(=O)O.[K] (stereo not drawn) [Comparative product 2, β-hydroxydecanoic acid potassium, reference compound] |  |  |  |  |
| 2500 (≈ 17100 µM) | 2500 (≈ 17100 µM) | CCCCCCC(O)CO (stereo not shown) [Comparative product 3, 1,2-octanediol, reference compound] |  |  |  |  |
|  |  | CC(O)CO (stereo not shown) [Comparative product 4, 1,2-propanediol, reference compound] | >2500 | >2500 | lower antimicrobial activities | antimicrobial activities, comparison in words [1]: lower antimicrobial activities |
|  |  | OCCCO [Comparative product 5, 1,3-propanediol, reference compound] | >2500 | >2500 | lower antimicrobial activities | antimicrobial activities, comparison in words [1]: lower antimicrobial activities |
| 312 (≈ 1140 µM) | 312 (≈ 1140 µM) | CCCCCCCCCC(O)CC(=O)OCC(C)O (stereo not drawn) [Present invention product 1, 1,2-propanediol mono-β-hydroxydodecanoic acid ester] |  |  |  |  |
| 312 (≈ 1200 µM) | 312 (≈ 1200 µM) | CCCCCCCCC(O)CC(=O)OCC(C)O (stereo not drawn) [Present invention product 2, 1,2-propanediol mono-β-hydroxyundecanoic acid ester] |  |  |  |  |
| 312 (≈ 1270 µM) | 625 (≈ 2540 µM) | CCCCCCCC(O)CC(=O)OCC(C)O (stereo not drawn) [Present invention product 3, 1,2-propanediol mono-β-hydroxydecanoic acid ester] |  |  | very stronger antimicrobial activities | antimicrobial activities, comparison in words [1]: very stronger antimicrobial activities |
|  |  | CCCCCCC(O)CC(=O)OCC(C)O (stereo not drawn) [Present invention product 4, 1,2-propanediol mono-β-hydroxynonanoic acid ester] | 1250 | 1250 |  |  |
|  |  | CCCCCC(O)CC(=O)OCC(C)O (stereo not drawn) [Present invention product 5, 1,2-propanediol mono-β-hydroxyoctanoic acid ester] | 2500 | >2500 | lower than 1,2-octanediol |  |
| 156 (≈ 569 µM) | 312 (≈ 1140 µM) | CCCCCCCCCC(O)CC(=O)OCCCO (stereo not drawn) [Present invention product 6, 1,3-propanediol mono-β-hydroxydodecanoic acid ester] |  |  |  |  |
| 312 (≈ 1200 µM) | 312 (≈ 1200 µM) | CCCCCCCCC(O)CC(=O)OCCCO (stereo not drawn) [Present invention product 7, 1,3-propanediol mono-β-hydroxyundecanoic acid ester] |  |  |  |  |
| 312 (≈ 1270 µM) | 625 (≈ 2540 µM) | CCCCCCCC(O)CC(=O)OCCCO (stereo not drawn) [Present invention product 8, 1,3-propanediol mono-β-hydroxydecanoic acid ester] |  |  | very stronger antimicrobial activities | compounding property: mixing with other components [3, 4]: easily mixed with other components; compounding property: turbidity or precipitation in the obtained product [3, 4]: not found; compounding property: mixing with other components ([3]; lotion): easily mixed with other components; compounding property: turbidity or precipitation in the obtained product ([3]; lotion): not found; compounding property: mixing with other components [3, 5]: easily mixed with other components; compounding property: turbidity or precipitation in the obtained product [3, 5]: not found; antimicrobial activities, comparison in words [1]: very stronger antimicrobial activities |
|  |  | CCCCCCC(O)CC(=O)OCCCO (stereo not drawn) [Present invention product 9, 1,3-propanediol mono-β-hydroxynonanoic acid ester] | 1250 | 1250 |  |  |
|  |  | CCCCCC(O)CC(=O)OCCCO (stereo not drawn) [Present invention product 10, 1,3-propanediol mono-β-hydroxyoctanoic acid ester] | 2500 | >2500 | lower than 1,2-octanediol |  |
